Laboratory results published in publication PMC5940854, “Nitrothiophene carboxamides, a novel narrow spectrum antibacterial series: Mechanism of action and Efficacy” (Scientific Reports, 2018).
Values after ≈ are worked out from the molar mass of the structure shown.

Key:
[1] = tested on: E. coli clinical isolates; test: MIC on panel of E. coli clinical isolates; type: cell-based
ATCC25922 = test: MIC on E. coli ATCC25922; type: cell-based; conditions: strain ATCC25922
Description: The inoculum used for all the experiments is derived from a single seed lot that is maintained as glycerol stocks at −80 °C and are sub cultured on LB plate for isolated colonies. Single colony of each strain is grown in M9 medium. All test compound stocks and dilutions are prepared in DMSO. Serial two-fold dilutions of compounds are prepared separately, with the concentrations ranging from 2 mg/mL to 0.015 mg/mL. To 150 µl (3–7 × 10^5 CFU/ml) of bacterial culture in 96 well microtitre plates, 3 μL compound from each of the dilutions is added to respective wells to obtain final concentrations ranging from 40 µg/mL to 0.3 µg/mL of the test compounds. Media control, culture control and appropriate reference drug controls are included. […] Growth is monitored by checking absorbance at 600 nm (A600). […] The samples from MIC and above concentrations are plated for MBC (Minimum Bactericidal Concentration). The samples are diluted 1:10 and plated on LB agar plates. […] The killing kinetics is determined by enumerating survivors at various time points following compound exposure. E. coli cells (~10^7 CFU/ml; A600 of 0.1) are treated with various concentrations (40 µg/mL to 0.3 µg/mL) of compounds in a 96-well microtitre plate. At various time intervals (0 to 8 h), 30 μl volumes of treated cultures are serially diluted and plated on LB agar plates. […] Data is expressed as the log10 CFU for each drug treatment.

## C[C@@H](O)[C@H]1C(=O)N2C(C(=O)O)=C(S[C@@H]3CN[C@H](C(=O)N(C)C)C3)[C@H](C)[C@H]12 [meropenem, reference compound]
[1]; 75 E.coli clinical isolates
  MIC Range: 0.03 to 8 µg/mL
[1]; Escherichia coli, 75 E.coli clinical isolates, 50% clinical isolates
  MIC50: 0.06 µg/mL (≈ 0.156 µM)
[1]; Escherichia coli, 75 E.coli clinical isolates, 90% clinical isolates
  MIC90: 8 µg/mL (≈ 20.9 µM)
[1]; strain SEC001
  MIC: > 4 µg/mL
[1]; strain SEC002
  MIC: 0.13 µg/mL (≈ 0.339 µM)
[1]; strain SEC003
  MIC: > 4 µg/mL
[1]; strain SEC004
  MIC: > 4 µg/mL
[1]; strain SEC005
  MIC: 0.06 µg/mL (≈ 0.156 µM)
[1]; strain SEC006
  MIC: 0.03 µg/mL (≈ 0.0782 µM)
[1]; strain SEC007
  MIC: 0.03 µg/mL (≈ 0.0782 µM)
[1]; strain SEC008
  MIC: 0.13 µg/mL (≈ 0.339 µM)
[1]; strain SEC011
  MIC: 0.06 µg/mL (≈ 0.156 µM)
[1]; strain SEC012
  MIC: 0.06 µg/mL (≈ 0.156 µM)
[1]; strain SEC013
  MIC: 0.06 µg/mL (≈ 0.156 µM)
[1]; strain SEC014
  MIC: 0.06 µg/mL (≈ 0.156 µM)
[1]; strain SEC015
  MIC: > 4 µg/mL
[1]; strain SEC016
  MIC: 0.03 µg/mL (≈ 0.0782 µM)
[1]; strain SEC017
  MIC: 0.06 µg/mL (≈ 0.156 µM)
[1]; strain SEC018
  MIC: 0.06 µg/mL (≈ 0.156 µM)
[1]; strain SEC019
  MIC: 0.06 µg/mL (≈ 0.156 µM)
[1]; strain SEC020
  MIC: > 4 µg/mL
[1]; strain SEC021
  MIC: 0.03 µg/mL (≈ 0.0782 µM)
[1]; strain SEC022
  MIC: 0.03 µg/mL (≈ 0.0782 µM)
[1]; strain SEC023
  MIC: 0.25 µg/mL (≈ 0.652 µM)
[1]; strain SEC024
  MIC: 0.25 µg/mL (≈ 0.652 µM)
[1]; strain SEC025
  MIC: 0.25 µg/mL (≈ 0.652 µM)
[1]; strain SEC026
  MIC: 0.13 µg/mL (≈ 0.339 µM)
[1]; strain SEC028
  MIC: 0.03 µg/mL (≈ 0.0782 µM)
[1]; strain SEC029
  MIC: 0.06 µg/mL (≈ 0.156 µM)
[1]; strain SEC031
  MIC: 0.06 µg/mL (≈ 0.156 µM)
[1]; strain SEC032
  MIC: 0.03 µg/mL (≈ 0.0782 µM)
[1]; strain SEC033
  MIC: 0.03 µg/mL (≈ 0.0782 µM)
[1]; strain SEC034
  MIC: 0.03 µg/mL (≈ 0.0782 µM)
[1]; strain SEC035
  MIC: 0.5 µg/mL (≈ 1.3 µM)
[1]; strain SEC036
  MIC: 0.06 µg/mL (≈ 0.156 µM)
[1]; strain SEC037
  MIC: 0.03 µg/mL (≈ 0.0782 µM)
[1]; strain SEC038
  MIC: 0.06 µg/mL (≈ 0.156 µM)
[1]; strain SEC039
  MIC: 0.03 µg/mL (≈ 0.0782 µM)
[1]; strain SEC040
  MIC: 0.06 µg/mL (≈ 0.156 µM)
[1]; strain SEC041
  MIC: > 4 µg/mL
[1]; strain SEC042
  MIC: 2 µg/mL (≈ 5.22 µM)
[1]; strain SEC043
  MIC: 0.06 µg/mL (≈ 0.156 µM)
[1]; strain SEC044
  MIC: 0.13 µg/mL (≈ 0.339 µM)
[1]; strain SEC045
  MIC: 0.06 µg/mL (≈ 0.156 µM)
[1]; strain SEC046
  MIC: 0.03 µg/mL (≈ 0.0782 µM)
[1]; strain SEC047
  MIC: 0.06 µg/mL (≈ 0.156 µM)
[1]; strain SEC048
  MIC: 0.25 µg/mL (≈ 0.652 µM)
[1]; strain SEC049
  MIC: 0.5 µg/mL (≈ 1.3 µM)
[1]; strain SEC050
  MIC: 0.03 µg/mL (≈ 0.0782 µM)
[1]; strain SEC051
  MIC: 0.03 µg/mL (≈ 0.0782 µM)
[1]; strain SEC052
  MIC: 1 µg/mL (≈ 2.61 µM)
[1]; strain SEC053
  MIC: 1 µg/mL (≈ 2.61 µM)
[1]; strain SEC054
  MIC: 0.03 µg/mL (≈ 0.0782 µM)
[1]; strain SEC055
  MIC: 0.06 µg/mL (≈ 0.156 µM)
[1]; strain SEC057
  MIC: 0.13 µg/mL (≈ 0.339 µM)
[1]; strain SEC058
  MIC: 0.06 µg/mL (≈ 0.156 µM)
[1]; strain SEC059
  MIC: 0.06 µg/mL (≈ 0.156 µM)
[1]; strain SEC060
  MIC: 0.06 µg/mL (≈ 0.156 µM)
[1]; strain SEC061
  MIC: 0.03 µg/mL (≈ 0.0782 µM)
[1]; strain SEC062
  MIC: 0.03 µg/mL (≈ 0.0782 µM)
[1]; strain SEC063
  MIC: > 4 µg/mL
[1]; strain SEC064
  MIC: 0.06 µg/mL (≈ 0.156 µM)
[1]; strain SEC065
  MIC: 0.03 µg/mL (≈ 0.0782 µM)
[1]; strain SEC067
  MIC: 0.06 µg/mL (≈ 0.156 µM)
[1]; strain SEC068
  MIC: > 4 µg/mL
[1]; strain SEC069
  MIC: 2 µg/mL (≈ 5.22 µM)
[1]; strain SEC070
  MIC: 0.03 µg/mL (≈ 0.0782 µM)
[1]; strain SEC071
  MIC: 0.03 µg/mL (≈ 0.0782 µM)
[1]; strain SEC072
  MIC: 0.06 µg/mL (≈ 0.156 µM)
[1]; strain SEC073
  MIC: 0.13 µg/mL (≈ 0.339 µM)
[1]; strain SEC074
  MIC: 0.06 µg/mL (≈ 0.156 µM)
[1]; strain SEC075
  MIC: 0.13 µg/mL (≈ 0.339 µM)
[1]; strain SEC076
  MIC: 0.06 µg/mL (≈ 0.156 µM)
[1]; strain SEC077
  MIC: 0.5 µg/mL (≈ 1.3 µM)
[1]; strain SEC078
  MIC: > 4 µg/mL
[1]; strain SEC079
  MIC: 0.06 µg/mL (≈ 0.156 µM)
[1]; strain SEC080
  MIC: 0.03 µg/mL (≈ 0.0782 µM)
ATCC25922
  MIC: 0.06 µg/mL (≈ 0.156 µM)
